According to patent US11813306B2, “Cyclic tetramer compounds as proprotein convertase subtilisin/kexin type 9 (PCSK9) inhibitors for the treatment of metabolic disorders” (NOVARTIS AG, priority 2018, dated 2023):

Biological target: human PCSK9 (Homo sapiens, UniProt Q8NBP7)
Test: PCSK9 ligand binding assay (TR-FRET): interference with binding of human PCSK9 to human LDLR
Settings: for IC50: Human PCSK9 Alexa Fluor 647 / Human LDLR extracellular domain-Europium Kryptate; for Max % inhibition: efficacy (Amax), 100% = 1 uM unlabeled human PCSK9, 0% = DMSO
How it was run: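 Read-out was TR-FRET ratio (665 nm over 615 nm, 330 nm excitation) between Alexa Fluor 647-human PCSK9 (16 nM added) and Europium Kryptate-human LDLR ectodomain (4 nM added). Compound and PCSK9 were mixed 30 min before LDLR, then incubated 2 h. Inhibition was normalised to DMSO and unlabelled-PCSK9 controls, giving IC50 and Amax.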

human PCSK9, sequence (Q8NBP7 153-692): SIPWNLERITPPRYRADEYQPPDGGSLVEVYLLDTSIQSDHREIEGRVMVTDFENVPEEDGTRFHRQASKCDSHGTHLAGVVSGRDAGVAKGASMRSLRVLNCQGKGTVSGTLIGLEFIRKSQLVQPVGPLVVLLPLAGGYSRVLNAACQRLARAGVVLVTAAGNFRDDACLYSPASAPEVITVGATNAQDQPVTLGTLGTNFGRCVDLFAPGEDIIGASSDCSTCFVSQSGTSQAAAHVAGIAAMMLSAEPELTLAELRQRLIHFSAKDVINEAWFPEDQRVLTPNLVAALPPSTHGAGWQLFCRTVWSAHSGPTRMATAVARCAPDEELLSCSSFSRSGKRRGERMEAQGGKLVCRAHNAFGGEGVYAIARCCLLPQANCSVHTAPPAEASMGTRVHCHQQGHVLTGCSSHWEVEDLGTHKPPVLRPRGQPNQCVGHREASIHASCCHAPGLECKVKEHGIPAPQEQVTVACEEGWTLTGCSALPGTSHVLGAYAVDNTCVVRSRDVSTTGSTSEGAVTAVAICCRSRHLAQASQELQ
human PCSK9, sequence (Q8NBP7 31-152 partner limits assumed): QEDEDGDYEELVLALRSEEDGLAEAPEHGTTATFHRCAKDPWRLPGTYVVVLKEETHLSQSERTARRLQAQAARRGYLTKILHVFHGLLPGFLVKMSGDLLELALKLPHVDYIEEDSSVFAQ

| Compound | IC50 | Max % inhibition |
| --- | --- | --- |
| C[C@H](O)[C@@H]1NC(=O)[C@H](C)N(Cc2ccc(Cl)cc2Oc2ccc(-c3cnc(CN(C)C)n3C)cc2)C(=O)C[C@@H](Cc2ccccc2)C(=O)N2CCC[C@@](Cc3ccc(Cl)cc3)(C2)NC1=O [Compound 109, (3R, 7S, 10S, 13R)-3-benzyl-6-(4-chloro-2-(4-(2-((dimethylamino)methyl)-1-methyl-1H-imidazol-5-yl)phenoxy)benzyl)-13-(4-chlorobenzyl)-10-((S)-1-hydroxyethyl)-7-methyl-1,6,9,12-tetraazabicyclo[11.3.1]heptadecane-2,5,8,11-tetraone] | 11.1 nM | 82.0% |
| COC[C@@H]1NC(=O)[C@H](C)N(Cc2ccc(Cl)cc2Oc2ccc(-c3cnc(CN4CCCC4)n3C)cc2)C(=O)C[C@@H]([C@H]2COc3c(OC)cccc32)C(=O)N(C)C[C@@H](Cc2ccc(Cl)cc2)N(C)C1=O.Cl [Compound 110, (2S, 5S, 8R, 12S)-1-(4-chloro-2-(4-(1-methyl-2-(pyrrolidin-1-ylmethyl)-1H-imidazol-5-yl)phenoxy)benzyl)-8-(4-chlorobenzyl)-12-((R)-7-methoxy-2,3-dihydrobenzofuran-3-yl)-5-(methoxymethyl)-2,7,10-trimethyl-1,4,7,10-tetraazacyclotetradecane-3,6,11,14-tetraone] | 10.2 nM | 102.2% |
| COC[C@@H]1NC(=O)[C@H](C)N(Cc2ccc(Cl)cc2Oc2ccc(-c3cnc(CN4CCCC4)n3C)cc2)C(=O)C[C@@H]([C@H]2CC(C)(C)c3ccccc32)C(=O)N(C)C[C@@H](Cc2ccc(Cl)cc2)N(C)C1=O.Cl [Compound 111, (2S, 5S, 8R, 12S)-1-(4-chloro-2-(4-(1-methyl-2-(pyrrolidin-1-ylmethyl)-1H-imidazol-5-yl)phenoxy)benzyl)-8-(4-chlorobenzyl)-12-((R)-3,3-dimethyl-2,3-dihydro-1H-inden-1-yl)-5-(methoxymethyl)-2,7,10-trimethyl-1,4,7,10-tetraazacyclotetradecane-3,6,11,14-tetraone] | 11.4 nM | 102.4% |
| CC[C@@H]1CC(=O)N(Cc2c(OCC(F)(F)F)cc(Cl)cc2Oc2ccc(-c3cnc(CN4CCCC4)n3C)cc2)[C@@H](C)C(=O)N[C@@H](CO)C(=O)N(C)[C@H](Cc2ccc(Cl)cc2)CNC1=O.Cl [Compound 112, (2S, 5S, 8R, 12R)-1-(4-chloro-2-(4-(1-methyl-2-(pyrrolidin-1-ylmethyl)-1H-imidazol-5-yl)phenoxy)-6-(2,2,2-trifluoroethoxy)benzyl)-8-(4-chlorobenzyl)-12-ethyl-5-(hydroxymethyl)-2,7-dimethyl-1,4,7,10-tetraazacyclotetradecane-3,6,11,14-tetraone] | 13.5 nM | 98.8% |
| COC[C@@H]1NC(=O)[C@H](C)N(Cc2ccc(Cl)cc2Oc2ccc(-c3cnc(CN4CCCC4)n3C)cc2)C(=O)C[C@@H]([C@H]2CCc3ccccc32)C(=O)N(CCC(F)F)C[C@@H](Cc2ccc(Cl)cc2)N(C)C1=O.Cl [Compound 113] | 21.6 nM | 102.5% |
| COC[C@@H]1NC(=O)[C@H](C)N(Cc2ccc(Cl)cc2Oc2ccc(-c3cnc(CN4CCCC4)n3C)cc2)C(=O)C[C@@H](Cc2ccccc2)C(=O)N(C)C[C@@H](Cc2ccc(Cl)cc2)N(C)C1=O.Cl [Compound 114, (2S, 5S, 8R, 12R)-12-benzyl-1-(4-chloro-2-(4-(1-methyl-2-(pyrrolidin-1-ylmethyl)-1H-imidazol-5-yl)phenoxy)benzyl)-8-(4-chlorobenzyl)-5-(methoxymethyl)-2,7,10-trimethyl-1,4,7,10-tetraazacyclotetradecane-3,6,11,14-tetraone] | 21.4 nM | 95.9% |
| COC[C@@H]1NC(=O)[C@H](C)N(Cc2ccc(Cl)cc2Oc2ccc(-c3cnc(CN4CCCC4)n3C)cc2)C(=O)C[C@@H]([C@H]2CCc3ccccc32)C(=O)N(CC2(C)CC2)C[C@@H](Cc2ccc(Cl)cc2)N(C)C1=O.Cl [Compound 115, (2S, 5S, 8R, 12S)-1-(4-chloro-2-(4-(1-methyl-2-(pyrrolidin-1-ylmethyl)-1H-imidazol-5-yl)phenoxy)benzyl)-8-(4-chlorobenzyl)-12-((R)-2,3-dihydro-1H-inden-1-yI)-5-(methoxymethyl)-2,7-dimethyl-10-((1-methylcyclopropyl)methyl)-1,4,7,10-tetraazacyclotetradecane-3,6,11,14-tetraone] | 25 nM | 99.0% |
| COC[C@@H]1NC(=O)[C@H](C)N(Cc2ccc(Cl)cc2Oc2ccc(-c3cnc(CN4CCCC4)n3C)cc2)C(=O)C[C@@H](Cc2ccccc2)C(=O)N(CCCN(C)C)C[C@@H](Cc2ccc(Cl)cc2)N(C)C1=O.Cl [Compound 116, (2S, 5S, 8R, 12R)-12-benzyl-1-(4-chloro-2-(4-(1-methyl-2-(pyrrolidin-1-ylmethyl)-1H-imidazol-5-yl)phenoxy)benzyl)-8-(4-chlorobenzyl)-10-(3-(dimethylamino)propyl)-5-(methoxymethyl)-2,7-dimethyl-1,4,7,10-tetraazacyclotetradecane-3,6,11,14-tetraone] | 19.7 nM | 104.9% |
| COC[C@@H]1NC(=O)[C@H](C)N(Cc2ccc(Cl)cc2Oc2cc(F)c(-c3cnc(CN4CCCC4)n3C)c(F)c2)C(=O)C[C@@H](Cc2ccccc2)C(=O)N(C)C[C@@H](Cc2ccc(Cl)cc2)N(C)C1=O.Cl [Compound 117, (2S, 5S, 8R, 12R)-12-benzyl-1-(4-chloro-2-(3,5-difluoro-4-(1-methyl-2-(pyrrolidin-1-ylmethyl)-1H-imidazol-5-yl)phenoxy)benzyl)-8-(4-chlorobenzyl)-5-(methoxymethyl)-2,7,10-trimethyl-1,4,7,10-tetraazacyclotetradecane-3,6,11,14-tetraone] | 35.1 nM | 98.9% |
| CCc1ccc(CN2C(=O)C[C@@H]([C@@H]3CCc4ccccc43)C(=O)N(C)C[C@H](Cc3ccc(Cl)cc3)N(C)C(=O)[C@H](CO)NC(=O)[C@@H]2C)c(Oc2ccc(-c3cnc(CN(C)C)n3C)cc2)c1 [Compound 118, (2S, 5S, 8S, 12S)-8-(4-chlorobenzyl)-12-((S)-2,3-dihydro-1H-inden-1-yl)-1-(2-(4-(2-((dimethylamino)methyl)-1-methyl-1H-imidazol-5-yl)phenoxy)-4-ethylbenzyl)-5-(hydroxymethyl)-2,7,10-trimethyl-1,4,7,10-tetraazacyclotetradecane-3,6,11,14-tetraone] | 59.6 nM | 95.2% |
| CCc1ccc(CN2C(=O)C[C@@H]([C@@H]3CCc4ccccc43)C(=O)N(C)C[C@@H](Cc3ccc(Cl)cc3)N(C)C(=O)[C@H](CO)NC(=O)[C@@H]2C)c(Oc2ccc(-c3cnc(CN(C)C)n3C)cc2)c1 [Compound 119, (2S,5S,8R,12S)-8-(4-Chlorobenzyl)-12-((S)-2,3-dihydro-1H-inden-1-yl)-1-(2-(4-(2-((dimethylamino)methyl)-1-methyl-1H-imidazol-5-yl)phenoxy)-4-ethylbenzyl)-5-(hydroxymethyl)-2,7,10-trimethyl-1,4,7,10-tetraazacyclotetradecane-3,6,11,14-tetraone] | 31.3 nM | 94.0% |
| CCc1ccc(CN2C(=O)C[C@@H]([C@@H]3CCc4ccccc43)C(=O)N(C)C[C@@H](Cc3ccc(Cl)cc3)N(C)C(=O)[C@@H](CO)NC(=O)[C@@H]2C)c(Oc2ccc(-c3cnc(CN(C)C)n3C)cc2)c1 [Compound 121] | 91.5 nM | 92.9% |
